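96-well plates; 48 h exposure; 5 concentrations. Endpoints by linear interpolation between flanking doses. Not reached: highest tested concentration assigned. Here, GI50 denotes the concentration required for 50% inhibition of growth.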 The source made the active and inactive calls. Cut-off read from the data, not from the text of the source: active = GI50 up to about 1.1 µM and inactive = higher.
What was measured:
Assay in all cases: NCI tumour cell line growth inhibition, 48 h
[1] = test system: 786-0
[2] = test system: CAKI-1
[3] = test system: EKVX
[4] = test system: HCC 2998
[5] = test system: HOP-92
[6] = test system: HT-29
[7] = test system: M14
[8] = test system: Malme-3M
[9] = test system: NCI-H460
[10] = test system: OVCAR-3
[11] = test system: OVCAR-5
[12] = test system: OVCAR-8
[13] = test system: RPMI-8226
[14] = test system: SK-MEL-2
[15] = test system: SK-OV-3
[16] = test system: SN12C
[17] = test system: T47D
[18] = test system: TK-10
[19] = test system: UACC-257
[20] = test system: UACC-62

Row | Structure (SMILES) | GI50 [1] | GI50 [2] | GI50 [3] | GI50 [4] | GI50 [5] | GI50 [6] | GI50 [7] | GI50 [8] | GI50 [9] | GI50 [10] | GI50 [11] | GI50 [12] | GI50 [13] | GI50 [14] | GI50 [15] | GI50 [16] | GI50 [17] | GI50 [18] | GI50 [19] | GI50 [20]
1 | COc1ccc(Cn2c3c(cc(OS(=O)(=O)C(F)(F)F)c2=O)Cc2ccccc2-3)cc1 | 4.89 µM (inactive) | 20.9 µM (inactive) | 20.4 µM (inactive) | 11.7 µM (inactive) | 22.3 µM (inactive) | > 50 µM (inactive) | 6.65 µM (inactive) | 16.2 µM (inactive) | 3.56 µM (inactive) | 9.53 µM (inactive) | 20.3 µM (inactive) | 13.3 µM (inactive) | 32.8 µM (inactive) | 45.6 µM (inactive) | 25.1 µM (inactive) | 16.9 µM (inactive) | 32.3 µM (inactive) | 22.3 µM (inactive) | 11.9 µM (inactive) | 10.5 µM (inactive)
2 | COc1ccc(NC(=S)NN=C(C)c2cccc(C(C)=NNC(=S)Nc3ccc(OC)cc3)n2)cc1 | 14.7 µM (inactive) | 11.4 µM (inactive) | > 100 µM (inactive) | 37.7 µM (inactive) | 45.6 µM (inactive) | 28.2 µM (inactive) | 11.2 µM (inactive) | 13.4 µM (inactive) | 12.4 µM (inactive) | 13.9 µM (inactive) | > 100 µM (inactive) | 9.51 µM (inactive) | > 100 µM (inactive) | > 100 µM (inactive) | 21.4 µM (inactive) | > 100 µM (inactive) | > 100 µM (inactive) | 58.2 µM (inactive) | > 100 µM (inactive) | > 100 µM (inactive)
3 | c1ccc(C2=NOC(c3ccccc3)N2C23CC4CC(CC(C4)C2)C3)cc1 (stereo not given) | > 10 µM (inactive) | > 10 µM (inactive) | > 10 µM (inactive) | > 10 µM (inactive) | > 10 µM (inactive) | > 10 µM (inactive) | > 10 µM (inactive) | > 10 µM (inactive) | > 10 µM (inactive) | > 10 µM (inactive) | > 10 µM (inactive) | > 10 µM (inactive) | > 10 µM (inactive) | > 10 µM (inactive) | > 10 µM (inactive) | > 10 µM (inactive) | > 10 µM (inactive) | > 10 µM (inactive) | 9.73 µM (inactive) | > 10 µM (inactive)
4 | CCCCCC(O)(CCCCC)CCCCCCCCC1=C(O)C(=O)c2ccccc2C1=O | 6.32 µM (inactive) | 12 µM (inactive) | 10.7 µM (inactive) | 16.6 µM (inactive) | 14.6 µM (inactive) | 14.1 µM (inactive) | 10.8 µM (inactive) | 11.5 µM (inactive) | 5.28 µM (inactive) | 14.3 µM (inactive) | 20.5 µM (inactive) | 7.19 µM (inactive) | 3.38 µM (inactive) | 12.1 µM (inactive) | 15.6 µM (inactive) | 9.04 µM (inactive) | 26.4 µM (inactive) | 15 µM (inactive) | 12.6 µM (inactive) | 8.17 µM (inactive)
5 | C[n+]1cccc(/C=C/c2ccc3cccc(O)c3n2)c1 | > 100 µM (inactive) | > 100 µM (inactive) | > 100 µM (inactive) | > 100 µM (inactive) | > 100 µM (inactive) | > 100 µM (inactive) | > 100 µM (inactive) | 19.3 µM (inactive) | 68.7 µM (inactive) | 27 µM (inactive) | > 100 µM (inactive) | 72.3 µM (inactive) | > 100 µM (inactive) | > 100 µM (inactive) | > 100 µM (inactive) | 32.1 µM (inactive) | 83.2 µM (inactive) | > 100 µM (inactive) | > 100 µM (inactive) | > 100 µM (inactive)
6 | OC(CN(CCCl)CCCl)C(O)C(O)C(O)CN(CCCl)CCCl (stereo not given) | 91 µM (inactive) | > 100 µM (inactive) | > 100 µM (inactive) | > 100 µM (inactive) | > 100 µM (inactive) | > 100 µM (inactive) | > 100 µM (inactive) | 85.7 µM (inactive) | 9.89 µM (inactive) | > 100 µM (inactive) | > 100 µM (inactive) | > 100 µM (inactive) | > 100 µM (inactive) | > 100 µM (inactive) | > 100 µM (inactive) | 23.2 µM (inactive) | 30.5 µM (inactive) | > 100 µM (inactive) | > 100 µM (inactive) | 12.4 µM (inactive)
7 | Clc1nncc2sc(-c3ccccc3)nc12 | 85.9 µM (inactive) | 0.2 µM (active) | 4.12 µM (inactive) | 8.45 µM (inactive) | 5.06 µM (inactive) | 20.3 µM (inactive) | 17.7 µM (inactive) | 22.1 µM (inactive) | 16.8 µM (inactive) | 6.41 µM (inactive) | 83.2 µM (inactive) | 20.1 µM (inactive) | 35.4 µM (inactive) | 16.4 µM (inactive) | 28.7 µM (inactive) | 21 µM (inactive) | 28.5 µM (inactive) | 40.9 µM (inactive) | 18.3 µM (inactive) | 16.4 µM (inactive)
8 | Cc1nn(C(=O)c2ccc(Cl)cc2)c2c1C(c1ccc(Cl)cc1)SC(=N)N2 (stereo not given) | > 10 µM (inactive) | > 10 µM (inactive) | > 10 µM (inactive) | > 10 µM (inactive) | > 10 µM (inactive) | > 10 µM (inactive) | > 10 µM (inactive) | > 10 µM (inactive) | > 10 µM (inactive) | > 10 µM (inactive) | > 10 µM (inactive) | > 10 µM (inactive) | > 10 µM (inactive) | > 10 µM (inactive) | > 10 µM (inactive) | > 10 µM (inactive) | > 10 µM (inactive) | > 10 µM (inactive) | > 10 µM (inactive) | > 10 µM (inactive)
9 | COc1cccc(/C=N/n2c(Cc3ccc(Cl)cc3)n[nH]c2=O)c1 | 25.1 µM (inactive) | 23.4 µM (inactive) | 29.6 µM (inactive) | > 100 µM (inactive) | 23.1 µM (inactive) | 12.4 µM (inactive) | > 100 µM (inactive) | 44.6 µM (inactive) | > 91.4 µM (inactive) | > 100 µM (inactive) | > 78.7 µM (inactive) | 16.9 µM (inactive) | > 77.6 µM (inactive) | 32.7 µM (inactive) | 27.7 µM (inactive) | 24.3 µM (inactive) | 16.1 µM (inactive) | 74 µM (inactive) | > 100 µM (inactive) | 34.2 µM (inactive)
10 | COc1ccc(CNC2=Nc3ccncc3S(=O)(=O)N2c2ccccc2)cc1 | 47.4 µM (inactive) | > 100 µM (inactive) | 65 µM (inactive) | 3.77 µM (inactive) | 29.9 µM (inactive) | 48.3 µM (inactive) | 57.7 µM (inactive) | 49.9 µM (inactive) | 43.1 µM (inactive) | 82.8 µM (inactive) | > 100 µM (inactive) | 49.8 µM (inactive) | 16.4 µM (inactive) | 41.7 µM (inactive) | > 100 µM (inactive) | 80.9 µM (inactive) | 29.3 µM (inactive) | 20.3 µM (inactive) | 37.4 µM (inactive) | 40.2 µM (inactive)
11 | CCOC(=O)C(=CNc1ccc(NC2=NCC(C)S2)cc1)C(=O)OCC (stereo not given) | 26.1 µM (inactive) | 45.3 µM (inactive) | 37.3 µM (inactive) | 33.4 µM (inactive) | 30.4 µM (inactive) | 23.6 µM (inactive) | 31.5 µM (inactive) | 24.3 µM (inactive) | 31.6 µM (inactive) | 18.2 µM (inactive) | > 100 µM (inactive) | 24.5 µM (inactive) | 9.48 µM (inactive) | 19.7 µM (inactive) | 60 µM (inactive) | 41 µM (inactive) | 24.8 µM (inactive) | 46.1 µM (inactive) | 26.5 µM (inactive) | 11 µM (inactive)
12 | O=C(O)/C=C/c1ccc(OS(=O)(=O)O)cc1 | > 100 µM (inactive) | > 100 µM (inactive) | > 100 µM (inactive) | > 100 µM (inactive) | > 100 µM (inactive) | > 100 µM (inactive) | > 100 µM (inactive) | > 100 µM (inactive) | > 100 µM (inactive) | > 100 µM (inactive) | > 100 µM (inactive) | > 100 µM (inactive) | > 100 µM (inactive) | > 100 µM (inactive) | > 100 µM (inactive) | > 100 µM (inactive) | > 100 µM (inactive) | > 100 µM (inactive) | > 100 µM (inactive) | > 100 µM (inactive)
13 | CC(=O)[C@]1(O)Cc2c(O)c3c(c(O)c2C(OC2OC(C)C(O)C(O)C2F)C1)C(=O)c1ccccc1C3=O (stereo not given in full) | 0.0288 µM (active) | 0.013 µM (active) | 0.61 µM (active) | 0.208 µM (active) | 0.055 µM (active) | 0.109 µM (active) | 0.0951 µM (active) | 0.208 µM (active) | < 0.01 µM (active) | 0.568 µM (active) | 0.125 µM (active) | 0.0238 µM (active) | < 0.0299 µM (active) | 0.828 µM (active) | 0.135 µM (active) | 0.0247 µM (active) | 0.0395 µM (active) | 0.197 µM (active) | 0.225 µM (active) | 0.0791 µM (active)
14 | CC(=O)c1cc2c(s1)C(=O)c1scc(C(C)=O)c1C2=O | 0.724 µM (active) | 0.929 µM (active) | 0.485 µM (active) | 1.98 µM (inactive) | 0.318 µM (active) | 1.81 µM (inactive) | 0.736 µM (active) | 0.385 µM (active) | 0.345 µM (active) | 0.0738 µM (active) | 1.57 µM (inactive) | 0.23 µM (active) | 0.209 µM (active) | 0.586 µM (active) | 1.96 µM (inactive) | 0.273 µM (active) | 0.254 µM (active) | 3.52 µM (inactive) | 0.223 µM (active) | 0.26 µM (active)
